# Laboratory results taken from ChEMBL document CHEMBL1137193, “Discovery of new chemical leads for prostaglandin D2 receptor antagonists” (Bioorg Med Chem Lett, 2004).
# Tests used:
# [1] = target: T1, Prostaglandin E2 receptor EP1 subtype (Mus musculus, UniProt P35375); test: Binding affinity for mouse Prostanoid EP1 receptor
# T1 sequence (P35375 whole entry): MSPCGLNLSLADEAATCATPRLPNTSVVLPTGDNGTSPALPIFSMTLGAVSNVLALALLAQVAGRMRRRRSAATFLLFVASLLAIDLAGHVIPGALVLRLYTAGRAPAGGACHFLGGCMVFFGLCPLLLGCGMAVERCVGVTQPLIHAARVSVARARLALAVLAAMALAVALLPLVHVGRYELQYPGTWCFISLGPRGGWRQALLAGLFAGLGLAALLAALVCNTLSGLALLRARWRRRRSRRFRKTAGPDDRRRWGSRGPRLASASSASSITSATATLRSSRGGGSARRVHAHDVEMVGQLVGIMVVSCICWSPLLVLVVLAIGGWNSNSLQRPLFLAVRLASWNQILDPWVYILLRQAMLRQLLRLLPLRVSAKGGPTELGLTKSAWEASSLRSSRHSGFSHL
# [2] = target: T2, Prostaglandin E2 receptor EP3 subtype (Mus musculus, UniProt P30557); test: Binding affinity for mouse Prostanoid EP3 receptor
# T2 sequence (P30557 whole entry): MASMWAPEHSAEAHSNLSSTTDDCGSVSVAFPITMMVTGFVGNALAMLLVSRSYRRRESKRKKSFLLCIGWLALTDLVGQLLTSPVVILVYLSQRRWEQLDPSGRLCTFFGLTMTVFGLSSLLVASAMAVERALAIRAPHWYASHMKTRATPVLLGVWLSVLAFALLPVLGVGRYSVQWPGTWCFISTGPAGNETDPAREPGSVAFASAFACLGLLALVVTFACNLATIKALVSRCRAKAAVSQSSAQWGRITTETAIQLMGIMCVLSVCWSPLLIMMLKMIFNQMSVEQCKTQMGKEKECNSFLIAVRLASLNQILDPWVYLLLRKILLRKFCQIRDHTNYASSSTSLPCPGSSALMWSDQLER
# [3] = target: T3, Prostaglandin D2 receptor (Mus musculus, UniProt P70263); test: Inhibition of mouse Prostanoid DP receptor
# T3 sequence (P70263 whole entry): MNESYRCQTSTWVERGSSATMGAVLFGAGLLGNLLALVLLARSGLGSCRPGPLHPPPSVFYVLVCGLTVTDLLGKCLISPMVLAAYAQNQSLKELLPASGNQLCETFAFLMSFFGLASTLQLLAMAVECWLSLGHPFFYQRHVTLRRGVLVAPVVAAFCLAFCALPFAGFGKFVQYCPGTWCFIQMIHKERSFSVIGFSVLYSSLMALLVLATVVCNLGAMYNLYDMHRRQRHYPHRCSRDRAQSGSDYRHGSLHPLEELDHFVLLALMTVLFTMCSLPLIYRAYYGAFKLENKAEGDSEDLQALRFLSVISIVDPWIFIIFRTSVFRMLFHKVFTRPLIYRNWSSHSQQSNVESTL
# [4] = target: Prostaglandin E2 receptor EP2 subtype (Mus musculus, UniProt Q62053); test: Binding affinity for mouse Prostanoid EP2 receptor
# Prostaglandin E2 receptor EP2 subtype, sequence (Q62053 whole entry): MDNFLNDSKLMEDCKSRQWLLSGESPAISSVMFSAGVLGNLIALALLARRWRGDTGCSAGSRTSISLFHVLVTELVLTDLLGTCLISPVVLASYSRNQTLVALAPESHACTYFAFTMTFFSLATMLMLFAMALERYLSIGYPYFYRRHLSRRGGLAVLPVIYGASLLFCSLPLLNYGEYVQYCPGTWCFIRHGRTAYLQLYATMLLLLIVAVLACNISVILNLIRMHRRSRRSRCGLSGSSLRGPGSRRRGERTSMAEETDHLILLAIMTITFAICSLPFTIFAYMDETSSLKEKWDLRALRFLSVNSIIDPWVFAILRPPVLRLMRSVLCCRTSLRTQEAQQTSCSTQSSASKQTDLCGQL
# [5] = target: T3, Prostaglandin D2 receptor; test: Binding affinity for mouse Prostanoid DP receptor
# [6] = target: Prostaglandin E2 receptor EP4 subtype (Mus musculus, UniProt P32240); test: Binding affinity for mouse Prostanoid EP4 receptor
# Prostaglandin E2 receptor EP4 subtype, sequence (P32240 whole entry): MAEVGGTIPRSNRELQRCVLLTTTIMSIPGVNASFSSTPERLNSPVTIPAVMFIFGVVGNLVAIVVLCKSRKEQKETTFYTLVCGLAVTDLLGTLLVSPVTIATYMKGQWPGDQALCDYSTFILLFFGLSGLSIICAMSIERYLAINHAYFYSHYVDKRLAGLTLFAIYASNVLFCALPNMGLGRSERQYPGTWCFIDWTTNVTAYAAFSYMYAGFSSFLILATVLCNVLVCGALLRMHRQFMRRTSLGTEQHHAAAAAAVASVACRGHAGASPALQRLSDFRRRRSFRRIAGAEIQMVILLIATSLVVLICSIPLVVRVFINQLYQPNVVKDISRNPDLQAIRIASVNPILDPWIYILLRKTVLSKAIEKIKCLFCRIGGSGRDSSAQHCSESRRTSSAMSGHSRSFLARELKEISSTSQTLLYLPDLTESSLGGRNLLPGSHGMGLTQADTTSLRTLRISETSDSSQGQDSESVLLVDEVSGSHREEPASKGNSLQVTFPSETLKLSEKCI
Ki [1],Ki [2],IC50 [3],Ki [4],Ki [5],Ki [6],Compound
> 10 µM,2.4 µM,910 nM,2.7 µM,190 nM,1.5 µM,CCCCOc1ccc(C(=O)n2c(C)c(CCCC(=O)O)c3cc(OC)ccc32)cc1
3.8 µM,> 10 µM,–,2.9 µM,1500 nM,> 10 µM,CCCCOc1ccc(C(=O)n2c(CC)c(CC(=O)O)c3cc(OC)ccc32)cc1
6.5 µM,> 10 µM,–,> 10 µM,> 10000 nM,> 10 µM,CCCCOc1ccccc1C(=O)n1c(C)c(CC(=O)O)c2cc(OC)ccc21
> 10 µM,> 10 µM,> 10000 nM,3.3 µM,1900 nM,> 10 µM,CCCCOc1ccc(C(=O)n2c(C)c(CC(=O)O)c3cc(O)ccc32)cc1
> 10 µM,> 10 µM,1600 nM,4.7 µM,270 nM,> 10 µM,CCCCOc1ccc(C(=O)n2c(C)c(CC(=O)O)c3cc(OC)ccc32)cc1
> 10 µM,> 10 µM,> 10000 nM,> 10 µM,> 10000 nM,> 10 µM,COc1ccc2c(c1)c(CC(=O)O)c(C)n2C(=O)c1ccc(Cl)cc1 [INDOMETHACIN]
5 µM,> 10 µM,2900 nM,1.7 µM,150 nM,2.2 µM,CCCCOc1ccc(C(=O)n2c(C)c(CC(=O)O)c3cc(C)ccc32)cc1
5.2 µM,> 10 µM,3900 nM,2.1 µM,110 nM,> 10 µM,CCCCOc1ccc(C(=O)n2c(C)c(CC(=O)O)c3ccccc32)cc1
> 10 µM,> 10 µM,–,8.9 µM,2200 nM,> 10 µM,CCCCOc1ccc(C(=O)n2cc(CC(=O)O)c3cc(OC)ccc32)cc1
> 10 µM,> 10 µM,4000 nM,> 10 µM,940 nM,> 10 µM,CCCCOc1ccc(C(=O)n2c(C)c(C(=O)O)c3cc(OC)ccc32)cc1
> 10 µM,> 10 µM,1500 nM,5.7 µM,280 nM,3 µM,CCCCOc1ccc(C(=O)n2c(C)c(CCC(=O)O)c3cc(OC)ccc32)cc1
> 10 µM,> 10 µM,4500 nM,5.2 µM,400 nM,4.2 µM,CCCCOc1ccc(C(=O)n2c(C)c(CCCCC(=O)O)c3cc(OC)ccc32)cc1
> 10 µM,> 10 µM,2500 nM,1.7 µM,410 nM,> 10 µM,CCCCOc1cccc(C(=O)n2c(C)c(CC(=O)O)c3cc(OC)ccc32)c1
